From patent publication US12595275B2, “Fluorine-containing compound and anti-cancer medical use thereof” (ASCENTAWITS PHARMACEUTICALS, LTD., priority 2019, dated 2026)
Where two headings read alike, the source gives them in different places.

Columns and labels:
H460 cancer cells = test: H460 proliferation assay in the presence of the specific AKR1C3 enzyme inhibitor TH-3021; type: cell-based, human; conditions: AKR1C3 inhibitor TH-3021 at 3 micromolar, added two hours before compound treatment, read-out: IC50 (nM) obtained when the AKR1C3 inhibitor TH-3021 was added
Description: (§1) Specifically, exponentially growing cells were seeded at a density of 4×10^3 cells per well in a 96 well plate and incubated at 37° C. in 5% CO2, 95% air and 100% relative humidity for 24 hours prior to addition of test compounds. Compounds were solubilized in 100% DMSO at 200 times the desired final test concentration. At the time of drug addition, compounds were further diluted to 4 times the desired final concentration with complete medium. Aliquots of 50 μl of compound at specified concentrations were added to microtiter wells already containing 150 μl of medium, resulting in the final drug concentration reported. After drug addition, the plates were incubated for an additional 2 hours at 37° C., 5% CO2, 95% air, and 100% relative humidity, then the drug was washed off and fresh medium was added and the plates were incubated for addition 70 hrs at 37° C., 5% CO2, 95% air and 100% relative humidity. At the end of this incubation, the viable cells were quantified using the AlamarBlue assay.
Similarly, in order to further verify that the compounds are activated by human AKR1C3 ([…] family 1 member C3), the effect of some of the compounds on the proliferation of H460 cancer cells was tested in the presence of a specific AKR1C3 enzyme inhibitor (at 3 micromolar concentration). The inhibitor-added compound solution was added to the cell culture two hours before the treatment with the compound. The inhibitor used was compound 36, i.e.,
[drawing 17] (TH-3021) in Flanagan et al., Bioorganic and Medicinal Chemistry (2014), pages 962-977.

[1] = tested on: H460 non-small cell lung cancer human tumor cell line; test: In vitro human tumor cell line cytotoxicity (proliferation) assay, H460; type: cell-based; conditions: NCI-H460, H460 cells, 2 hrs compound exposure, wash, additional 70 hrs incubation, AlamarBlue
Description: In vitro human tumor cell line cytotoxicity assays.
In vitro proliferation data on the H460 non-small cell lung cancer human tumor cell line is reported below in the compound table.
as §1

SMILES	IC50 (H460 cancer cells)	IC50 [1]	IC50 (H460 cancer cells; Homo sapiens, NCI-H460, 2 h)
O=[N+]([O-])c1ccc(C(OP(=O)(N2CC2)N2CC2)C(F)(F)F)cc1Oc1ccc(-c2ccc(F)cc2)nc1 (stereo not shown) [Compound No. 18]	> 1000 nM	35.5 nM	
CN(C)C(=O)c1ccc(Oc2cc(COc3cc(F)c(COP(=O)(N4CC4)N4CC4)cc3Cl)ccc2[N+](=O)[O-])cc1 [Compound No. 34]	> 1000 nM	38.5 nM	
CN(C(=O)c1ccc(Oc2cc(C(OP(=O)(N3CC3)N3CC3)C(F)(F)F)ccc2[N+](=O)[O-])cc1)c1ccccc1 (stereo not shown) [Compound No. 41]	341 nM	2.54 nM	
O=[N+]([O-])c1ccc(COc2c(F)cc(COP(=O)(N3CC3)N3CC3)cc2F)cc1Oc1ccc(C(F)(F)F)cc1 [Compound No. 4]	> 1000 nM	9.31 nM	
O=C(c1cccc(Oc2cc(C(OP(=O)(N3CC3)N3CC3)C(F)(F)F)ccc2[N+](=O)[O-])c1)N1CCCC1 (stereo not shown) [Compound No. 23]	795 nM	6.04 nM	
Cn1ncc2cc(Oc3cc(C(OP(=O)(N4CC4)N4CC4)C(F)(F)F)ccc3[N+](=O)[O-])ccc21 (stereo not shown) [Compound No. 43]	102 nM	30.4 nM	
O=[N+]([O-])c1ccc(COc2c(F)c(F)c(COP(=O)(N3CC3)N3CC3)c(F)c2F)cc1Oc1ccc(C(F)(F)F)cc1 [Compound No. 8]	> 1000 nM	0.526 nM	
O=[N+]([O-])c1ccc(C(OP(=O)(N2CC2)N2CC2)C(F)(F)F)cc1Oc1ccc(C(F)(F)F)cc1 (stereo not shown) [Compound No. 7]	> 1000 nM	25.6 nM	
CC1(C)CCN(C(=O)c2cccc(Oc3cc(C(OP(=O)(N4CC4)N4CC4)C(F)(F)F)ccc3[N+](=O)[O-])c2)CC1 (stereo not shown) [Compound No. 24]	> 1000 nM	4.33 nM	
O=[N+]([O-])c1ccc(C(OP(=O)(N2CC2)N2CC2)C(F)(F)F)cc1Oc1ccc(-c2ccc(F)cn2)cc1 (stereo not shown) [Compound No. 20]	> 1000 nM	46.8 nM	
O=[N+]([O-])c1ccc(C(OP(=O)(N2CC2)N2CC2)C(F)(F)F)cc1Oc1ccc(-c2ccc(F)cc2F)cc1 (stereo not shown) [Compound No. 15]		11.4 nM	> 1000 nM
O=[N+]([O-])c1ccc(C(OP(=O)(N2CC2)N2CC2)C(F)(F)F)cc1Oc1ccc(C2CCCC2)cc1 (stereo not shown) [Compound No. 47]		8.13 nM	
O=C(c1cccc(Oc2cc(COc3c(F)cc(COP(=O)(N4CC4)N4CC4)cc3F)ccc2[N+](=O)[O-])c1)N1CC(F)C1 [Compound No. 36]	238 nM	< 4.37 nM	
O=[N+]([O-])c1ccc(C(OP(=O)(N2CC2)N2CC2)C(F)(F)F)cc1Oc1ccc(-c2ccc(F)cc2)c(F)c1 (stereo not shown) [Compound No. 16]	> 1000 nM	6.78 nM	
O=[N+]([O-])c1ccc(C(OP(=O)(N2CC2)N2CC2)C(F)(F)F)cc1Oc1ccc(C2CCC(F)(F)CC2)cc1 (stereo not shown) [Compound No. 49]	> 1000 nM	9.61 nM	
O=[N+]([O-])c1ccc(C(OP(=O)(N2CC2)N2CC2)C(F)(F)F)cc1Oc1cnc2ccccc2c1 (stereo not shown) [Compound No. 13]	> 1000 nM	42.2 nM	
O=[N+]([O-])c1ccc(C(OP(=O)(N2CC2)N2CC2)C(F)(F)F)cc1Oc1ccc(-c2ccccc2)cc1 (stereo not shown) [Compound No. 44]	> 1000 nM	9.42 nM	
O=C(c1cccc(Oc2cc(COc3c(F)cc(COP(=O)(N4CC4)N4CC4)cc3F)ccc2[N+](=O)[O-])c1)N1CC(F)(F)C1 [Compound No. 38]	267 nM	5.53 nM	
O=C(c1cccc(Oc2cc(C(OP(=O)(N3CC3)N3CC3)C(F)(F)F)ccc2[N+](=O)[O-])c1)N1CCC(O)CC1 (stereo not shown) [Compound No. 26]	175 nM	1.2 nM	
O=[N+]([O-])c1ccc(C(OP(=O)(N2CC2)N2CC2)C(F)(F)F)cc1Oc1ccc(OC(F)(F)F)cc1 (stereo not shown) [Compound No. 11]	> 1000 nM	137 nM	
Cc1nc2ccc(Oc3cc(C(OP(=O)(N4CC4)N4CC4)C(F)(F)F)ccc3[N+](=O)[O-])cc2s1 (stereo not shown) [Compound No. 42]	> 1000 nM	29.3 nM	

SMILES	IC50 (H460 cancer cells)	IC50 [1]	IC50 (H460 cancer cells; Homo sapiens, NCI-H460, 2 h)
N#Cc1cccc(Oc2cc(COc3c(F)cc(COP(=O)(N4CC4)N4CC4)cc3F)ccc2[N+](=O)[O-])c1 [Compound No. 39]	137 nM	7.79 nM	
O=[N+]([O-])c1ccc(C(OP(=O)(N2CC2)N2CC2)C(F)(F)F)cc1Oc1ccc2ncccc2c1 (stereo not shown) [Compound No. 40]	> 1000 nM	14.7 nM	
O=C(c1ccc(Oc2cc(C(OP(=O)(N3CC3)N3CC3)C(F)(F)F)ccc2[N+](=O)[O-])cc1)N1CCCCC1 (stereo not shown) [Compound No. 28]	649 nM	2.36 nM	
CN(C)C(=O)c1cccc(Oc2cc(C(OP(=O)(N3CC3)N3CC3)C(F)(F)F)ccc2[N+](=O)[O-])c1 (stereo not shown) [Compound No. 6]	813 nM	1.27 nM	
O=C(c1cccc(Oc2cc(C(OP(=O)(N3CC3)N3CC3)C(F)(F)F)ccc2[N+](=O)[O-])c1)N1CCC(C(F)(F)F)CC1 (stereo not shown) [Compound No. 25]	179 nM	1.86 nM	
O=[N+]([O-])c1ccc(C(OP(=O)(N2CC2)N2CC2)C(F)(F)F)cc1Oc1ccc(-c2ccc(F)cc2F)c(F)c1 (stereo not shown) [Compound No. 17]	> 1000 nM	7.26 nM	
CN(C)C(=O)c1ccc(Oc2cc(COc3c(F)cc(COP(=O)(N4CC4)N4CC4)cc3F)ccc2[N+](=O)[O-])cc1 [Compound No. 1]	460 nM	1.97 nM	
O=[N+]([O-])c1ccc(C(OP(=O)(N2CC2)N2CC2)C(F)(F)F)cc1Oc1ccc(C2CCCCC2)cc1 (stereo not shown) [Compound No. 48]		3.7 nM	
O=C(c1cccc(Oc2cc(C(OP(=O)(N3CC3)N3CC3)C(F)(F)F)ccc2[N+](=O)[O-])c1)N1CCC(F)(F)CC1 (stereo not shown) [Compound No. 22]	139 nM	1.37 nM	
O=[N+]([O-])c1ccc(C(OP(=O)(N2CC2)N2CC2)C(F)(F)F)cc1Oc1ccc(-c2ccc(C(F)(F)F)cc2)nc1 (stereo not shown) [Compound No. 19]	> 1000 nM	313 nM	
CN(C)C(=O)c1ccc(Oc2cc(COc3c(F)c(F)c(COP(=O)(N4CC4)N4CC4)c(F)c3F)ccc2[N+](=O)[O-])cc1 [Compound No. 2]	> 1000 nM	0.352 nM	
CN(C)C(=O)c1cccc(Oc2cc(COc3c(F)c(F)c(COP(=O)(N4CC4)N4CC4)c(F)c3F)ccc2[N+](=O)[O-])c1 [Compound No. 3]	> 1000 nM	0.417 nM	
O=C(c1ccc(Oc2cc(C(OP(=O)(N3CC3)N3CC3)C(F)(F)F)ccc2[N+](=O)[O-])cc1)N1CCC(C(F)(F)F)CC1 (stereo not shown) [Compound No. 29]	> 1000 nM	60.1 nM	
O=[N+]([O-])c1ccc(C(OP(=O)(N2CC2)N2CC2)C(F)(F)F)cc1Oc1ccc(F)c(C(F)(F)F)c1 (stereo not shown) [Compound No. 12]	> 1000 nM	87.3 nM	
O=[N+]([O-])c1ccc(C(OP(=O)(N2CC2)N2CC2)C(F)(F)F)cc1Oc1ccc(-c2ccc(F)cc2)cc1 (stereo not shown) [Compound No. 9]	> 1000 nM	18.4 nM	
N#Cc1ccc(Oc2cc(COc3c(F)cc(COP(=O)(N4CC4)N4CC4)cc3F)ccc2[N+](=O)[O-])cc1 [Compound No. 37]	136 nM	12.3 nM	
CN(C)C(=O)c1ccc(Oc2cc(C(OP(=O)(N3CC3)N3CC3)C(F)(F)F)ccc2[N+](=O)[O-])cc1 (stereo not shown) [Compound No. 27]	> 1000 nM	9.32 nM	
O=[N+]([O-])c1ccc(COc2c(F)cc(COP(=O)(N3CC3)N3CC3)cc2F)cc1Oc1ccc(Cl)nc1 [Compound No. 5]	228 nM	5.87 nM	
O=C(c1cccc(Oc2cc(C(OP(=O)(N3CC3)N3CC3)C(F)(F)F)ccc2[N+](=O)[O-])c1)N1CCCCC1 (stereo not shown) [Compound No. 21]	176 nM	6.98 nM	
O=C(c1ccc(Oc2cc(C(OP(=O)(N3CC3)N3CC3)C(F)(F)F)ccc2[N+](=O)[O-])cc1)N1CCC(c2ccccc2)CC1 (stereo not shown) [Compound No. 30]	> 1000 nM	79.9 nM	
O=[N+]([O-])c1ccc(C(OP(=O)(N2CC2)N2CC2)C(F)(F)F)cc1Oc1cccc(-c2ccc(F)cc2)c1 (stereo not shown) [Compound No. 14]	> 1000 nM	30 nM	
